From publication PMC7503370, “Cellular Signaling and Anti-Apoptotic Effects of Prolactin-Releasing Peptide and Its Analog on SH-SY5Y Cells” (International Journal of Molecular Sciences, 2020)
Numbered stars: 1 amine (or outer) side, 2 acyl side, 3 side chain; on linkers, the order of the positions; unused ones are H or OH. Side chains are listed from the residue outwards. Peptide text beside a SMILES is read from it. * marks the point of attachment. γGlu = O=C(O)[C@H](CCC(=O)[*:2])N[*:1]; Palmitoyl = CCCCCCCCCCCCCCCC(=O)*

How the values were obtained:
Format in all cases: cell-based, human
[1] = test system: Tau protein phosphorylation in SH-SY5Y cells; experiment: Western blotting of Tau phosphorylation in MG-stressed cells; conditions: 4 h pretreatment 1 × 10^−5 M, then 0.6 mM MG 16 h, vs MG; for attenuation of MG-increased Tau phosphorylation at Ser396: normalized to GAPDH
Experimental: Figure 8 PrRP31 and palm^11-PrRP31 attenuate Tau hyperphosphorylation at the epitope Ser396 in SH-SY5Y. Immunoblots with: (a) and their quantifications: (b). SH-SY5Y cells were pretreated with PrRP31 and palm^11-PrRP31 at a concentration of 1 × 10^−5 M for 4 h and then stressed with 0.6 mM MG for 16 h. Activation was expressed as the ratio of the activated protein to the total amount of the protein, both normalized to loading control, GAPDH. Data are presented as the means ± SEM as a percentage of control cells treated with medium alone. Analysis is made vs. MG by a Student’s t-test, * p < 0.5, ** p < 0.01 (each sample replicate in triplicate).
(§1) For the investigation of the molecular mechanism of PrRP31 and its analog in the cells, signaling pathways were studied by Western blotting (WB). The cells were cultured in 6-well plates at a density of 800,000 cells per well. Growth medium was exchanged for serum-free DMEM 16 h before an experiment, and then, the cells were incubated with PrRP31, palm^11-PrRP31, or scrambled peptide at a final concentration of 1 × 10^−5 M or insulin at a concentration of 1 × 10^−7 M at 37 °C for 8 min. The cells were rapidly cooled on ice and lysed in 400 µl of Laemmli sample buffer (62.5 mM Tris-HCl with pH 6.8, 2% SDS, 10% glycerol, 0.01% bromophenol blue, 5% mercaptoethanol, 50 mM NaF, and 1 mM Na3VO4) and stored at −20 °C. Afterward, the cell lysates were analyzed by WB. SDS-electrophoresis and WB were carried out using a Criterion system with a 26-well 4−15% Criterion^TM TGX^TM Precast Midi Protein Gel (Bio-Rad, Hercules, CA, USA) at a constant voltage of 200 V or 100 V, respectively.
(§2) Subsequently, the membranes were incubated overnight with primary antibody (Ab) at 4 °C, according to the manufacturer´s instructions (Table 2). The next day, the membranes were incubated with an HRP-linked secondary antibody for 1 h at room temperature. Chemiluminescence was visualized with a ChemiDoc^TM System (Bio-Rad). Band intensities were normalized using glyceraldehyde 3-phosphate dehydrogenase (GAPDH) as an internal loading control.
For analysis of the molecular mechanism during MG stress, the growth medium was exchanged for serum-free DMEM 16 h before the experiment. The cells were pretreated with 1 × 10^−5 M PrRP31 or palm^11-PrRP31 for 4 h; then, MG was added to a final concentration of 0.6 mM, and the cells were incubated at 37 °C for 16 h. The controls and compounds were tested in triplicate.

SH-SY5Y cells = experiment: Treatment with peptides after 16 h exposure to MG, MTT cell viability; conditions: 1.2 mM MG 16 h, then 4 h treatment 1 × 10^−5 M, n = 3, octuplicates
Experimental: Treatment for 4 h with PrRP31 and palm^11-PrRP31 at a concentration of: (a) 1 × 10^−5 M; after exposure to 1.2 mM MG for 16 h in SH-SY5Y cells. Treatment for 4 h with PrRP31 and palm^11-PrRP31 at a concentration of: (b) 1 × 10^−5 M; (c) 1 × 10^−7 M, after exposure to 0.6 mM MG for 16 h in SH-SY5Y cells. MG toxicity measured with MTT assay. Data are presented as the means ± SEM as a percentage of control cells treated with vehicle analyzed by a Student´s t-test vs. 0.6 mM MG ## p < 0.01, ### p < 0.001, #### p < 0.0001 (n = 3, each sample in octuplicates). Control vs. 0.6 mM MG analyzed by a Student´s t-test, * p < 0.5, ** p < 0.01.
The MTT test was used to measure cell viability. The MTT reagent was dissolved in RPMI-1640 without phenol red. Cells were incubated for 2 h with a 10% solution of MTT at 37 °C. Living cells converted soluble MTT to insoluble formazan, which was subsequently dissolved in DMSO. The absorbance was measured at a wavelength of 560 nm.
For this assay, cells were cultured in 96-well plates at a density of 40,000 cells per well. The growth medium was exchanged for serum-free DMEM 16 h before the experiment. First, the cells were pretreated with 1 × 10^−5 M or 1 × 10^−7 M PrRP31 or palm^11-PrRP31 (in octuplicates) for 4 h to prevent MG cytotoxic effects; then, MG was added to a final concentration of 0.6 mM or 1.2 mM. The cells were incubated at 37 °C for 16 h. […]

[2] = test system: PI3K/Akt signaling pathway in SH-SY5Y cells; experiment: Western blotting of PI3K/Akt signaling pathway after 8 min incubation; conditions: 1 × 10^-5 M, 37 °C, vs control cells (medium alone), normalized to GAPDH, n = 3, triplicates
Experimental: Figure 1 Prolactin-releasing peptide 31 (PrRP31) and palm^11-PrRP31 increased phosphoinositide-3 kinase (PI3K/Akt) signaling pathway in SH-SY5Y cells. Immunoblots: (a) and their quantifications: (b). SH-SY5Y cells were incubated either with PrRP31 and its palmitoylated analog and scrambled at a final concentration 1 × 10^-5 M, or with insulin at the final concentration 1 × 10^−7 M at 37 °C for 8 min, or medium alone (control). Activation was expressed as the ratio of the activated protein to the total amount of the protein, both normalized to loading control, glyceraldehyde 3-phosphate dehydrogenase (GAPDH). Data are presented as the means ± SEM as a percentage of control cells analyzed by one-way ANOVA followed by the Dunnett post hoc test, * p < 0.5, ** p < 0.01, **** p < 0.0001 (n = 3, each sample in triplicates).
as §1, §2
Eight minutes of incubation was performed in a series of experiments with different exposure times (5, 10, 15, 30, and 60 min) to PrRP31 and its palmitoylated analog. Activation of analogs was strongest after 10 min. Then, the cells were treated with inhibitors of signaling pathways for 2 min, and analogs were added for 8 min. The time of exposure was set to 8 min to ensure that the incubation time for PrRP31 and its palmitoylated analog was the same. The controls and compounds were tested in triplicate in three independent experiments. The PI3K/Akt pathway is one of the main signaling pathways of insulin; therefore, insulin was used as a positive control. Scrambled peptide was used as a negative control. Activation is expressed as the ratio of the activated protein to the total amount of the protein. GAPDH was used as a loading control.

`CC[C@H](C)[C@H](NC(=O)CNC(=O)[C@H](CCCNC(=N)N)NC(=O)[C@H](CO)NC(=O)[C@H](C)NC(=O)[C@H](Cc1ccc(O)cc1)NC(=O)[C@H](Cc1c[nH]c2ccccc12)NC(=O)[C@H](C)NC(=O)[C@@H]1CCCN1C(=O)[C@H](CC(N)=O)NC(=O)[C@@H](NC(=O)[C@H](CC(=O)O)NC(=O)[C@@H]1CCCN1C(=O)[C@@H](NC(=O)[C@H](CCCNC(=N)N)NC(=O)[C@@H](NC(=O)[C@H](CCC(=O)O)NC(=O)[C@H](CCSC)NC(=O)[C@H](CO)NC(=O)[C@H](Cc1c[nH]cn1)NC(=O)[C@H](CCCNC(=N)N)NC(=O)[C@H](Cc1c[nH]cn1)NC(=O)[C@@H](NC(=O)[C@H](CCCNC(=N)N)NC(=O)[C@@H](N)CO)[C@@H](C)O)[C@@H](C)CC)[C@@H](C)O)[C@@H](C)CC)C(=O)N[C@@H](CCCNC(=N)N)C(=O)N1CCC[C@H]1C(=O)N[C@H](C(=O)NCC(=O)N[C@@H](CCCNC(=N)N)C(=O)N[C@@H](Cc1ccccc1)C(N)=O)C(C)C` [PrRP31] was tested, and the “Tau phosphorylation at Ser198/199/202 (Tau 1)/Tau 5 induced by MG, effect of pretreatment” value [1] was “tended to decrease”, the “attenuation of MG-increased Tau phosphorylation at Ser396” value ([1]; triplicates) was 46% and the “change of cell viability compared to cells administered with 1.2 mM MG” value (SH-SY5Y cells) was “nonsignificant increase”. The “increase of the level of p-Akt (Ser473)/Akt” value [2] was 53%, the “increase of the level of p-GSK3β (inhibitory Ser9)/GSK3β” value [2] was 41% and the “increase of the level of p-m-Tor (Ser2448)/m-Tor” value [2] was 22%.

With `CCCCCCCCCCCCCCCC(=O)N[C@@H](CCC(=O)NCCCC[C@H](NC(=O)[C@@H](NC(=O)[C@H](CCC(=O)O)NC(=O)[C@H](CCSC)NC(=O)[C@H](CO)NC(=O)[C@H](Cc1c[nH]cn1)NC(=O)[C@H](CCCNC(=N)N)NC(=O)[C@H](Cc1c[nH]cn1)NC(=O)[C@@H](NC(=O)[C@H](CCCNC(=N)N)NC(=O)[C@@H](N)CO)[C@@H](C)O)[C@@H](C)CC)C(=O)N[C@H](C(=O)N1CCC[C@H]1C(=O)N[C@@H](CC(=O)O)C(=O)N[C@H](C(=O)N[C@@H](CC(N)=O)C(=O)N1CCC[C@H]1C(=O)N[C@@H](C)C(=O)N[C@@H](Cc1c[nH]c2ccccc12)C(=O)N[C@@H](Cc1ccc(O)cc1)C(=O)N[C@@H](C)C(=O)N[C@@H](CO)C(=O)N[C@@H](CCCNC(=N)N)C(=O)NCC(=O)N[C@H](C(=O)N[C@@H](CCCNC(=N)N)C(=O)N1CCC[C@H]1C(=O)N[C@H](C(=O)NCC(=O)N[C@@H](CCCNC(=N)N)C(=O)N[C@@H](Cc1ccccc1)C(N)=O)C(C)C)[C@@H](C)CC)[C@@H](C)CC)[C@@H](C)O)C(=O)O` [palm^11-PrRP31] (H-SRTHRHSMEIK([γGlu-Palmitoyl])TPDINPAWYASRGIRPVGRF-NH2; N-terminus assumed) the “attenuation of MG-increased Tau phosphorylation at Ser396” value ([1]; triplicates) was 32%, the “increase in unphosphorylated Tau (Tau 1 antibody, Ser198/199/202)/Tau 5” value ([1]; triplicates) was 32% and the “change of cell viability compared to cells administered with 1.2 mM MG” value (SH-SY5Y cells) was “nonsignificant increase”. The “increase of the level of p-Akt (Ser473)/Akt” value [2] was 48%, the “increase of the level of p-Akt (Thr308)/Akt” value [2] was 36% and the “increase of the level of p-GSK3β (inhibitory Ser9)/GSK3β” value [2] was 85%. The “increase of the level of p-PDK1 (Ser241)/PDK1” value [2] was 20% and the “increase of the level of p-m-Tor (Ser2448)/m-Tor” value [2] was 22%.
